Results from US8575145B2, “Triazolopyridine compounds as PIM kinase inhibitors” (Array BioPharma Inc., priority 2008, dated 2013).
Counter-ions that a name gives are not always drawn. Like-named read-outs stand apart in the source and are kept apart here.

How the values were obtained:
[1] = target: GST-tagged recombinant full-length human PIM-2 (Homo sapiens (Human), UniProt Q9P1W9); assay: PIM-2 Enzyme Assay
recombinant rat PIM-3 = recombinant rat PIM-3 (Rattus norvegicus (Rat), UniProt O70444); assay: PIM-3 Enzyme Assay; settings: 30 μM ATP, 0.5 nM PIM-3
PIM-1 = PIM-1 (Homo sapiens (Human), UniProt P11309); assay: PIM-1 Enzyme Assay; format: biochemical
Chain of PIM-1 (P11309 whole entry, species assumed): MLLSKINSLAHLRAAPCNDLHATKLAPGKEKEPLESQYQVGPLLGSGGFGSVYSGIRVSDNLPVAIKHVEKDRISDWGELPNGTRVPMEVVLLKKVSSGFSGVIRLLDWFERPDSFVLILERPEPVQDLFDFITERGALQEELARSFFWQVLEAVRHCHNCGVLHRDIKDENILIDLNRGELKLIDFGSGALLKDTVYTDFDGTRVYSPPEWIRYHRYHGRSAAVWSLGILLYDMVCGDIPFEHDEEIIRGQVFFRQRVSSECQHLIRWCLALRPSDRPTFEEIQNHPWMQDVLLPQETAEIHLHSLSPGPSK
Description: The amount of radiolabeled product is then measured by liquid scintillation counting. The final buffer conditions were as follows: 20 mM K^+MOPS, pH 7.4, 10 mM MgCl2, 0.005% Tween-20, 1 mM DTT. […] Incubations were carried out for 60 min at 22° C. and quenched with 75 μL of 200 mM H3PO4, filtered through a Whatman P81 plate and washed (1×200 μL and 5×100 μL ) with 200 mM H3PO4. Liquid scintillation cocktail (50 μL ) was then added per well, and the plate was counted for 30 s/well using a TopCount NXT.
One-μL aliquots of these were then transferred to the assay mixtures above to give a final concentration of DMSO of 2%. […] For each plate, percent of control (POC) values were calculated for each well. IC50's were estimated from the POC's using a standard 4-parameter logistic model. The IC50 is defined as the concentration of inhibitor at which the POC equals 50 for the fitted curve.

[2] = read-out: PIM-2 IC50, 4 μM ATP, […] PIM-2
[3] = PIM-2 IC50 (nM), 4 μM ATP, […] PIM-2

Chain of GST-tagged recombinant full-length human PIM-2 (Q9P1W9 whole entry): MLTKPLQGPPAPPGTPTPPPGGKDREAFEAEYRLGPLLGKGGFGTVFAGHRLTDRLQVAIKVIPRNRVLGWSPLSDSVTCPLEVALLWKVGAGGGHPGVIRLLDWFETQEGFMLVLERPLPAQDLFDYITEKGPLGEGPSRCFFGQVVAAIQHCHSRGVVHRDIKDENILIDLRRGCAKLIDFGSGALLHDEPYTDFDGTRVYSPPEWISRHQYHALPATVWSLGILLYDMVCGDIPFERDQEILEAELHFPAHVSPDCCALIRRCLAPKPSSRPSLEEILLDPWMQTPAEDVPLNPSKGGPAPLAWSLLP

Row | IC50 [1, 2] [nM] | IC50 (recombinant rat PIM-3; read-out: PIM-3 IC50) [nM] | IC50 (PIM-1; 35 μM ATP, 0.25 nM PIM-1) [nM] | IC50 [1, 3] [nM] | IC50 (recombinant rat PIM-3; PIM-3 IC50 (nM)) [nM] | SMILES | IC50 ([1]; read-out: PIM-2 IC50) [nM] | IC50 (PIM-1) [nM]
1 | 959 | 10.9 | 11 | – | – | Fc1cc(OC2CCNCCC2F)c2nc(-c3nnc4ccccn34)ccc2c1 (single isomer, unassigned) [Example 120, 2-([1,2,4]triazolo[4,3-a]pyridin-3-yl)-6-fluoro-8-((cis)-5-fluoroazepan-4-yloxy)quinoline] | – | –
2 | 10000 | 222 | 70 | – | – | CON(C)C(=O)[C@@H]1C[C@@H](Oc2cccc3ccc(-c4nnc5ccccn45)nc23)CCN1 [Example 55, (2S,4S)-4-(2-([1,2,4]triazolo[4,3-a]pyridin-3-yl)quinolin-8-yloxy)-N-methoxy-N-methylpiperidine-2-carboxamide dihydrochloride] | – | –
3 | 1040 | 35 | 5 | – | – | NCCCNc1cccc2ccc(-c3nnc4ccccn34)nc12 [Example 7, N1-(2-([1,2,4]Triazolo[4,3-a]pyridin-3-yl)quinolin-8-yl)propane-1,3-diamine] | – | –
4 | 1350 | 51 | 13 | – | – | CCCC(Oc1cccc2ccc(-c3nnc4ccccn34)nc12)[C@@H](CC)CN (stereo partly drawn) [Example 34, (2S)-3-(2-([1,2,4]triazolo[4,3-a]pyridin-3-yl)quinolin-8-yloxy)-2-ethylhexan-1-amine] | – | –
5 | 126 | 10 | 1.3 | – | – | CCC1(COc2cccc3ccc(-c4nnc5ccccn45)nc23)CCNCC1 [Example 68, 2-([1,2,4]triazolo[4,3-a]pyridin-3-yl)-8-((4-ethylpiperidin-4-yl)methoxy)quinoline dihydrochloride] | – | –
6 | 2020 | 20 | 5 | – | – | c1cc(N[C@@H]2CCNC2)c2nc(-c3nnc4ccccn34)ccc2c1 [Example 5, (R)-2-([1,2,4]Triazolo[4,3-a]pyridin-3-yl)-N-(pyrrolidin-3-yl)quinolin-8-amine] | – | –
7 | 39 | 0.9 | 0.8 | – | – | Fc1cc(OC2CCNCCC2F)c2nc(-c3nnc4ccccn34)ccc2c1 (single isomer, unassigned) [Example 91, trans-2-([1,2,4]triazolo[4,3-a]pyridin-3-yl)-6-fluoro-8-5-fluoroazepan-4-yloxy)quinoline] | – | –
8 | 352 | 2 | 1.5 | – | – | Cc1ccc2nnc(-c3ccc4cccc(OC5CCNCCC5F)c4n3)n2c1 (single isomer, unassigned) [Example 100, 8-((trans)-5-fluoroazepan-4-yloxy)-2-(6-methyl-[1,2,4]triazolo[4,3-a]pyridin-3-yl)quinoline] | – | –
9 | 279 | 19 | 5 | – | – | CC[C@H](CN)C(C)Oc1cccc2ccc(-c3nnc4ccccn34)nc12 (stereo partly drawn) [Example 33, (2R)-3-(2-([1,2,4]triazolo[4,3-a]pyridin-3-yl)quinolin-8-yloxy)-2-ethylbutan-1-amine] | – | –
10 | 1000 | 79.4 | 19.1 | – | – | c1cc(OC2CCCNCC2)c2nc(-c3nnc4ccccn34)ccc2c1 (single isomer, unassigned) [Example 128, 2-([1,2,4]triazolo[4,3-a]pyridin-3-yl)-8-(azepan-4-yloxy)quinoline] | – | –
11 | 17 | 2 | 0.7 | – | – | CC(C)(CO)COc1cccc2ccc(-c3nnc4cc(CN)ccn34)nc12 [Example 19, 3-(2-(7-(aminomethyl)-[1,2,4]triazolo[4,3-a]pyridin-3-yl)quinolin-8-yloxy)-2,2-dimethylpropan-1-ol] | – | –
12 | – | – | 0.92 | 100 | 2 | FC1CCNCCC1Oc1cccc2ccc(-c3nnc4ccccn34)nc12 (single isomer, unassigned) [Example 49, 2-([1,2,4]triazolo[4,3-a]pyridin-3-yl)-8-(5-fluoroazepan-4-yloxy)quinoline dihydrochloride] | – | –
13 | 300 | 10.1 | 3.3 | – | – | CC(C)(COc1cc(F)cc2ccc(-c3nnc4ccccn34)nc12)[C@@H](O)CO [Example 112, (R)-4-(2-([1,2,4]triazolo[4,3-a]pyridin-3-yl)-6-fluoroquinolin-8-yloxy)-3,3-dimethylbutane-1,2-diol dihydrochloride] | – | –
14 | 6020 | 105 | 22 | – | – | c1cc(N[C@H]2CCNC2)c2nc(-c3nnc4ccccn34)ccc2c1 [Example 4, (S)-2-([1,2,4]Triazolo[4,3-a]pyridin-3-yl)-N-(pyrrolidin-3-yl)quinolin-8-amine] | – | –
15 | – | 248 | 167 | – | – | COC(=O)[C@@H]1C[C@H](Oc2cccc3ccc(-c4nnc5ccccn45)nc23)CN1 [Example 87, (2S,4S)-methyl 4-(2-([1,2,4]triazolo[4,3-a]pyridin-3-yl)quinolin-8-yloxy)pyrrolidine-2-carboxylate] | – | –
16 | – | – | 32 | 1170 | 41 | FC1CCNCCC1Oc1cccc2ccc(-c3nnc4ccccn34)nc12 (single isomer, unassigned) [Example 47, 2-([1,2,4]triazolo[4,3-a]pyridin-3-yl)-8-(-5-fluoroazepan-4-yloxy)quinoline dihydrochloride] | – | –
17 | 1360 | 48 | 10 | – | – | CCCC(Oc1cccc2ccc(-c3nnc4ccccn34)nc12)[C@H](CC)CN (stereo partly drawn) [Example 35, (2R)-3-(2-([1,2,4]triazolo[4,3-a]pyridin-3-yl)quinolin-8-yloxy)-2-ethylhexan-1-amine] | – | –
18 | 143 | 4 | – | – | – | CNCC(C)(C)COc1cccc2ccc(-c3nnc4ccccn34)nc12 [Example 28, 3-(2-([1,2,4]triazolo[4,3-a]pyridin-3-yl)quinolin-8-yloxy)-N,2,2-trimethylpropan-1-amine] | – | –
19 | 514 | 13 | – | – | – | NCCCOc1cccc2ccc(-c3nnc4ccccn34)nc12 [Example 10, 3-(2-([1,2,4]Triazolo[4,3-a]pyridin-3-yl)quinolin-8-yloxy)propan-1-amine] | – | –
20 | 323 | 13 | – | – | – | CCNCC(C)(C)COc1cccc2ccc(-c3nnc4ccccn34)nc12 [Example 27, 3-(2-([1,2,4]triazolo[4,3-a]pyridin-3-yl)quinolin-8-yloxy)-N-ethyl-2,2-dimethylpropan-1-amine di-trifluoroacetate] | – | –
21 | 189 | 9 | – | – | – | COC(=O)[C@@H]1C[C@@H](Oc2cccc3ccc(-c4nnc5ccccn45)nc23)CCN1 [Example 13, (2S,4S)-Methyl 4-(2-([1,2,4]triazolo[4,3-a]pyridin-3-yl)quinolin-8-yloxy)piperidine-2-carboxylate] | – | –

Row | SMILES | IC50 [1, 2] [nM] | IC50 (recombinant rat PIM-3; read-out: PIM-3 IC50) [nM] | IC50 (PIM-1; 35 μM ATP, 0.25 nM PIM-1) [nM] | IC50 [1, 3] [nM] | IC50 (recombinant rat PIM-3; PIM-3 IC50 (nM)) [nM] | IC50 ([1]; read-out: PIM-2 IC50) [nM] | IC50 (PIM-1) [nM]
22 | CC(C)(CN)COc1cccc2ccc(-c3nnc4ccc(C5CC5)cn34)nc12 [Example 64, 3-(2-(6-cyclopropyl-[1,2,4]triazolo[4,3-a]pyridin-3-yl)quinolin-8-yloxy)-2,2-dimethylpropan-1-amine dihydrochloride] | – | 5 | – | – | – | 323 | 0.64
23 | c1cc(OC2CCNCC2)c2nc(-c3nnc4ccccn34)ccc2c1 [Example 9, 2-([1,2,4]triazolo[4,3-a]pyridin-3-yl)-8-(piperidin-4-yloxy)quinoline di-trifluoroacetate] | – | 17 | 4 | – | – | 570 | –
